In paper PMC13372822 (The EMBO Journal, 2026):
Numbering of substitutions follows the chain as printed.

Tests used:
OXGR1 = OXGR1 (Homo sapiens, UniProt Q96P68); assay: cAMP assay, Gs pathway (OXGR1-Gs-cAMP-Assay); assay type: cell-based; parameters: The full-length human OXGR1 and mutations were fused after the HA signal peptide and Flag tag; HA signal peptide (N); Flag (N); expressed in transfected cells; host or cells: HEK293 (pcDNA3.0, transient electroporation); details: OXGR1 WT
Procedure: In brief, cells expressing OXGR1 were seeded in a plate at a density of 1 × 10^6 cells/well and cultured overnight. After 24 h culture, cells were harvested and re-suspended in DMEM containing 500 µM IBMX at a density of 2 × 10^5 cells/mL. Then, cells were plated onto 384-well assay plates at a density of 1000 cells/5 µL/well. Another 5 µL buffer containing compounds at various concentrations was added to the cells, and the incubation lasted for 30 min at 37 °C. Intracellular cAMP level was tested by a LANCE Ultra cAMP kit (PerkinElmer, TRF0264) and EnVision multiplate reader according to the manufacturer’s instructions.

[1] = target: T1, SUCR1 mutants (variant named in the endpoint) (Homo sapiens, UniProt Q9BXA5, F285A/L102F); assay: Calcium mobilization assay, SUCR1 mutants in HEK293 stably expressing Gα16; assay type: cell-based;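 as to Emax: percent of the maximal response to succinate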
T1 construct: The full-length human SUCR1 and mutations were fused after the HA signal peptide and Flag tag; HA signal peptide (N); Flag (N); expressed in transfected cells; host or cells: HEK293 stably expressing Gα16 (pcDNA6.0, transient electroporation)
T1 sequence (Q9BXA5 1-334 L102F/F285A): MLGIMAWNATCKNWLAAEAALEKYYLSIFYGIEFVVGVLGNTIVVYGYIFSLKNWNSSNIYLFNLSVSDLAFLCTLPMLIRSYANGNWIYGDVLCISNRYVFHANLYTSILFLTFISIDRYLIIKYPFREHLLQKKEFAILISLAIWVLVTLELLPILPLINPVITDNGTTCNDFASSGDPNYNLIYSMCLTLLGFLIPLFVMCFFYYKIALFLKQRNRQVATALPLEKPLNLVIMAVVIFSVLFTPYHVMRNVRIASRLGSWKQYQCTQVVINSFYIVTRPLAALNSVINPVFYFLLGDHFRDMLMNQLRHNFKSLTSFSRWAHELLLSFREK
Procedure: (§1) The full-length human SUCR1 and mutations were fused after the HA signal peptide and Flag tag. The constructs were cloned into pcDNA6.0 vector for HEK293 system.
(§2) HEK293 cells were obtained from ATCC (Manassas, VA, USA) and cultured in DMEM supplemented with 10% (v/v) FBS, 100 mg/L penicillin, and 100 mg/L streptomycin in 5% CO2 at 37 °C. For transient transfection, ~2.5 × 10^6 cells were mixed with 2 µg plasmids in 200 µL transfection buffer, and electroporation was carried out with a Scientz-2C electroporation apparatus (Scientz Biotech, Ningbo, China). The experiments were carried out 24 h after transfection. HEK293 cell lines stably expressing Gα16 were constructed by our laboratory.
(§3) For OXGR1, plasmids were transfected into HEK293 (other receptors were transfected into HEK293 stably expressing Gα16) and seeded at a density of 4 × 10^4 per well into 96-well culture plates and incubated for 24 h at 37 °C in 5% CO2. The next day, Cells were incubated with 2 μM/L Fluo-4 AM in HBSS supplemented with 5.6 mM/L D-glucose and 250 μM/L sulfinpyrazone at 37 °C for 45 min. […] Three independent measurements were repeated, i.e., three different transfections, with three technical replicates performed for each experiment. EC50 and Emax values for each curve were calculated by Prism 8.0 software (GraphPad Software).

FFAR3 = target: T2, FFAR3 (Homo sapiens, UniProt O14843); assay: Calcium mobilization assay, FFAR3 in HEK293 stably expressing Gα16; assay type: cell-based; details: in words; related receptor
T2 construct: expressed in transfected cells; host or cells: HEK293 stably expressing Gα16
T2 sequence (O14843 1-346): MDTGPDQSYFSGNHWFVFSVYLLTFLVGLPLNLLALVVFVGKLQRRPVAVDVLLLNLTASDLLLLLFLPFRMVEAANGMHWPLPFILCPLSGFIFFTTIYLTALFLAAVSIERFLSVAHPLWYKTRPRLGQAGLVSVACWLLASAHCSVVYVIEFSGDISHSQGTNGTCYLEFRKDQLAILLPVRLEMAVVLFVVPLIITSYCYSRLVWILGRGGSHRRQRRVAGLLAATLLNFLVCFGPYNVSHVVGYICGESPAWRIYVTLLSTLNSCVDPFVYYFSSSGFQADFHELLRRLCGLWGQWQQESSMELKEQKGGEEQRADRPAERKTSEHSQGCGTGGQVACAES
Procedure: as §2, §3

SUCR1 = target: T3, SUCR1 (Homo sapiens, UniProt Q9BXA5); assay: Calcium mobilization assay, wild-type SUCR1 in HEK293 stably expressing Gα16; assay type: cell-based;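 as to Emax: percent of the maximal response to succinate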
T3 construct: The full-length human SUCR1 and mutations were fused after the HA signal peptide and Flag tag; HA signal peptide (N); Flag (N); expressed in transfected cells; host or cells: HEK293 stably expressing Gα16 (pcDNA6.0, transient electroporation)
T3 sequence (Q9BXA5 1-334): T1 sequence (Q9BXA5 1-334 L102F/F285A) with F102L, A285F
Procedure: as §1, §2, §3

[2] = test system: OXGR1 mutants (variant named in the endpoint); assay: Calcium mobilization assay, OXGR1 mutants in HEK293; details: for Emax: each ligand normalized to WT (100%);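 as to all read-outs here: human OXGR1 variants transiently expressed in HEK293 cells, with intracellular calcium read out by Fluo-4 AM fluorescence, measured 24 h after transfection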
Procedure: as §1, §2, §3

For `O=C(O)CCC(=O)C(=O)O` [AKG, α-ketoglutarate], the “activation of Gs signaling” value (OXGR1) was “no detectable activation”, the Emax ([1]; HEK293) was 5.5 ± 1% and the “activation of FFAR3” value (FFAR3) was “no cross-reactivity”. The Emax (SUCR1; HEK293) was 3.5 ± 3% and the “activation of SUCR1” value (SUCR1; in words) was “no cross-reactivity”.

In the case of `O=C(O)CCC(=O)O` [SUC, succinate], the EC50 ([2]; OXGR1 D185A) is reported as > 1000 µM, the Emax ([2]; OXGR1 D185A) is reported as -4.4± 9 WT% and the EC50 ([2]; OXGR1 E97A) is reported as 1580 ± 260 µM. The Emax ([2]; OXGR1 E97A) was 74± 6 WT%, the EC50 ([2]; OXGR1 F113A) was > 1000 µM and the Emax ([2]; OXGR1 F113A) was -0.39± 2 WT%. The EC50 ([2]; OXGR1 F113W) was 760 ± 210 µM, the “increase in potency by F113W mutation” value ([2]; OXGR1 F113W versus WT) was “no significant change” and the Emax ([2]; OXGR1 F113W) was 82± 5 WT%. For the same molecule, the EC50 ([2]; OXGR1 F257A) was > 10000 µM, the Emax ([2]; OXGR1 F257A) was 29± 1 WT% and the EC50 ([2]; OXGR1 F257Y) was 81 ± 4 µM. For the same molecule, the Emax ([2]; OXGR1 F257Y) was 76± 2 WT%, the EC50 ([2]; OXGR1 H114A) was 3600 ± 600 µM and the Emax ([2]; OXGR1 H114A) was 84± 4 WT%. For the same molecule, the EC50 ([2]; OXGR1 H114L) was > 1000 µM, the Emax ([2]; OXGR1 H114L) was 1.9± 3 WT% and the EC50 ([2]; OXGR1 H281A) was 4500 ± 1300 µM. The Emax ([2]; OXGR1 H281A) was 87±10 WT%, the EC50 ([2]; OXGR1 I172A) was > 1000 µM and the Emax ([2]; OXGR1 I172A) was 0.013± 2 WT%. For the same molecule, the EC50 ([2]; OXGR1 L36A) was > 1000 µM, the Emax ([2]; OXGR1 L36A) was 6.1± 0.2 WT% and the EC50 ([2]; OXGR1 L89A) was > 1000 µM. For the same molecule, the Emax ([2]; OXGR1 L89A) was 2.8± 0.9 WT%, the EC50 ([2]; OXGR1 L186A) was > 1000 µM and the Emax ([2]; OXGR1 L186A) was -0.43± 1 WT%. For the same molecule, the EC50 ([2]; OXGR1 L186F) was 770 ± 60 µM, the Emax ([2]; OXGR1 L186F) was 75± 5 WT% and the EC50 ([2]; OXGR1 L299P) was > 1000 µM. The Emax ([2]; OXGR1 L299P) was 10.5±3 WT%, the “activation of OXGR1 L299P” value ([2]; OXGR1 L299P, in words) was “abolished” and the EC50 ([2]; OXGR1 M168I) was 1100 ± 60 µM. The Emax ([2]; OXGR1 M168I) was 88± 2 WT%, the EC50 ([2]; OXGR1 N28A) was 300 ± 50 µM and the Emax ([2]; OXGR1 N28A) was 94± 0.8 WT%. For the same molecule, the EC50 ([2]; OXGR1 R110A) was > 1000 µM, the Emax ([2]; OXGR1 R110A) was 7.0± 1 WT% and the EC50 ([2]; OXGR1 R110E) was > 1000 µM. The Emax ([2]; OXGR1 R110E) was 8.9± 5 WT%, the EC50 ([2]; OXGR1 R110Q) was > 1000 µM and the Emax ([2]; OXGR1 R110Q) was 1.7± 2 WT%. For the same molecule, the EC50 ([2]; OXGR1 R177A) was 370 ± 70 µM, the Emax ([2]; OXGR1 R177A) was 89± 6 WT% and the EC50 ([2]; OXGR1 R264A) was > 10000 µM. For the same molecule, the Emax ([2]; OXGR1 R264A) was 57± 5 WT%, the EC50 ([2]; OXGR1 R268A) was > 1000 µM and the Emax ([2]; OXGR1 R268A) was 6.3± 4 WT%. For the same molecule, the EC50 ([2]; OXGR1 R288A) was > 1000 µM, the EC50 ([2]; OXGR1 R288E) was > 1000 µM and the Emax ([2]; OXGR1 R288E) was -16±0.6 WT%. The EC50 ([2]; OXGR1 R288Q) was > 1000 µM, the EC50 ([2]; OXGR1 Y40A) was > 1000 µM and the Emax ([2]; OXGR1 Y40A) was -1.5± 2 WT%. For the same molecule, the EC50 ([2]; OXGR1 Y93A) was > 1000 µM, the Emax ([2]; OXGR1 Y93A) was 5.5± 3 WT% and the EC50 ([2]; OXGR1 Y284A) was > 1000 µM. For the same molecule, the Emax ([2]; OXGR1 Y284A) was 4.1±2 WT% and the EC50 ([1]; SUCR1 F285A-L102F) was 460 ± 80 µM.
